Measurements reported in PMC5344255, “Design, Synthesis and Biochemical Evaluation of Novel Selective Estrogen Receptor Ligand Conjugates Incorporating an Endoxifen-Combretastatin Hybrid Scaffold” (Biomedicines, 2016).

Assays:
Assay type in all cases: cell-based
[1] = tested on: MDA-MB-231 human breast cancer cells; experiment: Lactate dehydrogenase (LDH) cytotoxicity assay in MDA-MB-231; settings: % cell lysis at 10 μM
Protocol: (§1) In this assay, the release of cytoplasmic lactate dehydrogenase (LDH) is used as a measure of cell lysis. MCF-7 and MDA-MB-231 cells were seeded at a density of 1 × 10^4 cells/well in a 96-well plate and incubated for 24 h. The cells were then dosed with 2 μL volumes of the test compounds, over the concentration range 1 nM–50 μM. Cytotoxicity was determined using the CytoTox 96 nonradioactive cytotoxicity assay (Promega, Madison, WI, USA) following the manufacturer’s protocol.

[2] = tested on: MCF-7 human breast cancer cells; experiment: Lactate dehydrogenase (LDH) cytotoxicity assay in MCF-7; settings: % cell lysis at 10 µM
Protocol: as §1

[3] = tested on: MCF-7 human breast cancer cells; experiment: MTT assay for antiproliferative effects in MCF-7; settings: for inhibition at 10 µM: MCF7, MCF-7, read-out: growth inhibition
Protocol: (§2) The human breast carcinoma cell line, MCF-7, was purchased from the European Collection of Animal Cell Cultures (ECACC). The cells were maintained in MCF-7 complete medium; consisting of Eagle’s Minimum Essential Medium (MEM) supplemented with 10% (v/v) Foetal Bovine Serum (FBS), 2 mM L-glutamine, 100 μg/mL penicillin/streptomycin and 1% (v/v) non-essential amino acids. Cell cultures were maintained at 37 °C under a humidified atmosphere of 5% CO2/95% O2. The human breast carcinoma cell line, MDA, was purchased from the European Collection of Animal Cell Cultures (ECACC). The cells were maintained in MDA complete medium; consisting of Dulbecco’s Modified Eagle’s Medium (D-MEM) supplemented with 10% (v/v) Foetal Bovine Serum (FBS), 2 mM L-glutamine, 100 μg/mL penicillin/streptomycin. Cell cultures were maintained at 37 °C under a humidified atmosphere of 5% CO2/95% O2. The MTT assay was performed according to the reported protocol. The tetrazolium salt, 3-(4,5-dimethylthiazol-2-yl)-2,5-diphenyltetrazolium bromide (MTT) is taken up only by metabolically active cells and cleaved to form a formazan dye by mitochondrial dehydrogenases. Assays where repeated in three experiments performed in triplicate (unless otherwise stated) and reported results represent the mean value ± standard error mean. Graphs of percentage cell viability versus concentration of the subject compound were processed using PRISM [31].

[4] = tested on: MDA-MB-231 human breast cancer cells; experiment: MTT assay for antiproliferative effects in MDA-MB-231; settings: MDA-MB-231, MTT assay
Protocol: as §2, with “Cell cultures were maintained at 37 °C under a humidified atmosphere of 5% CO2/95% O2.” left out, “Assays where repeated in three experiments performed in triplicate (unless otherwise stated) and reported results represent the mean value ± standard error mean.” left out

[5] = Homo sapiens, MCF7, MCF-7, MTT assay, mean of at least three experiments in triplicate
[6] = Homo sapiens, MCF7, MCF-7, MTT assay, values in nM
[7] = MCF-7, MTT assay, mean of at least three experiments in triplicate

SMILES	% Cell Death at 10 μM [1] [%]	% Cell Death at 10 μM [2] [%]	IC50 [3, 5] [nM]	IC50 [4] [µM]	also measured
CCC(=C(c1ccc(O)cc1)c1ccc(OCCN(C)C(=O)/C(=C/c2ccc3c(c2)OCO3)c2ccc(OC)cc2)cc1)c1ccc(O)cc1 (mixture of isomers) [Compound 34, (E)-3-Benzo[1,3]dioxol-5-yl-N-(2-{4-[(E/Z)-1,2-bis-(4-hydroxyphenyl)but-1-enyl]phenoxy}ethyl)-2-(4-methoxyphenyl)-N-methylacrylamide]	16	6	49	0.68	–
COc1ccc(/C=C(/C(=O)N2CCCC2)c2cc(OC)c(OC)c(OC)c2)cc1N [Compound 54, (E)-3-(3-Amino-4-methoxyphenyl)-1-(pyrrolidin-1-yl)-2-(3,4,5-trimethoxyphenyl)prop-2-en-1-one]	–	–	> 50000	–	–
CCC(=C(c1ccc(O)cc1)c1ccc(OCCN(C)C(=O)/C(=C/c2ccc3ccccc3c2)c2cc(OC)c(OC)c(OC)c2)cc1)c1ccc(O)cc1 (mixture of isomers) [Compound 36, (E)-N-(2-{4-[(E/Z)-1,2-Bis-(4-hydroxyphenyl)but-1-enyl]phenoxy}ethyl)-N-methyl-3-naphthalen-2-yl-2-(3,4,5-trimethoxyphenyl)acrylamide]	0	3	3620	4.32	IC50 [3, 6]: 1.51 nM
CC/C(=C(\c1ccc(O)cc1)c1ccc(OCCN(C)C)cc1)c1ccccc1 [4-Hydroxytamoxifen, reference compound]	0	–	–	18	–
CCC(=C(c1ccc(O)cc1)c1ccc(OCCN(C)C(=O)/C(=C/c2ccc(Br)cc2)c2cc(OC)c(OC)c(OC)c2)cc1)c1ccccc1 (mixture of isomers) [Compound 41, (E)-3-(4-Bromophenyl)-N-(2-{4-[(E/Z)-1-(4-hydroxyphenyl)-2-phenylbut-1-enyl]phenoxy}ethyl)-N-methyl-2-(3,4,5-trimethoxyphenyl)acrylamide]	0	5	1030	> 50	–
COc1ccc(/C=C(/C(=O)O)c2cc(OC)c(OC)c(OC)c2)cc1O [Compound 13]	–	–	120	–	–
CCC(=C(c1ccc(O)cc1)c1ccc(OCCN(C)C(=O)/C(=C/c2ccc(OC)c(F)c2)c2cc(OC)c(OC)c(OC)c2)cc1)c1ccccc1 (mixture of isomers) [Compound 43, (E)-3-(3-Fluoro-4-methoxyphenyl)-N-(2-{4-[(E/Z)-1-(4-hydroxyphenyl)-2-phenylbut-1-enyl]phenoxy}ethyl)-N-methyl-2-(3,4,5-trimethoxyphenyl) acrylamide]	0	2	180	30.3	–
COc1ccc(/C(=C\c2ccc3c(c2)OCO3)C(=O)O)cc1 [Compound 25]	–	–	–	–	IC50 [3, 7]: > 50000 nM
CCC(=C(c1ccc(O)cc1)c1ccc(OCCN(C)C(=O)/C(=C/c2ccc(SC)cc2)c2cc(OC)c(OC)c(OC)c2)cc1)c1ccc(O)cc1 (mixture of isomers) [Compound 40, (E)-N-(2-{4-[(E/Z)-1,2-Bis-(4-hydroxyphenyl)but-1-enyl]phenoxy}ethyl)-N-methyl-3-(4-methylsulfanylphenyl)-2-(3,4,5-trimethoxyphenyl)acrylamide]	–	2	64	–	–
CCC(=C(c1ccc(O)cc1)c1ccc(OCCN(C)C(=O)/C(=C/c2ccc(OC)cc2)c2cc(OC)c(OC)c(OC)c2)cc1)c1ccc(O)cc1 (mixture of isomers) [Compound 30, (E)-N-(2-{4-[(E/Z)-1,2-Bis-(4-hydroxyphenyl)but-1-enyl]phenoxy}ethyl)-3-(4-methoxyphenyl)-N-methyl-2-(3,4,5-trimethoxyphenyl)acrylamide]	7	19	43	6.29	–
CCC(=C(c1ccc(O)cc1)c1ccc(OCCN(C)C(=O)/C(=C/c2ccc(SC)cc2)c2cc(OC)c(OC)c(OC)c2)cc1)c1ccccc1 (mixture of isomers) [Compound 39, (E)-N-(2-{4-[(E/Z)-1-(4-Hydroxyphenyl)-2-phenylbut-1-enyl]phenoxy}ethyl)-N-methyl-3-(4-methylsulfanylphenyl)-2-(3,4,5-trimethoxyphenyl) acrylamide]	–	3	790	–	–
CCC(=C(c1ccc(O)cc1)c1ccc(OCCN(C)C(=O)/C(=C/c2ccc(C)cc2)c2cc(OC)c(OC)c(OC)c2)cc1)c1ccccc1 (mixture of isomers) [Compound 37, (E)-N-(2-{4-[(E/Z)-1-(4-Hydroxyphenyl)-2-phenylbut-1-enyl]phenoxy}ethyl)-N-methyl-3-p-tolyl-2-(3,4,5-trimethoxyphenyl)acrylamide]	–	2	1750	–	IC50 [3, 6]: 3.62 nM
CCC(=C(c1ccc(O)cc1)c1ccc(OCCN(C)C(=O)/C(=C/c2ccc(OC)c(N)c2)c2cc(OC)c(OC)c(OC)c2)cc1)c1ccccc1 (mixture of isomers) [Compound 45, (E)-3-(3-Amino-4-methoxyphenyl)-N-(2-{4-[(E/Z)-1-(4-hydroxyphenyl)-2-phenylbut-1-enyl]phenoxy}ethyl)-N-methyl-2-(3,4,5-trimethoxyphenyl) acrylamide]	0	8	959	7.11	–
COc1ccc(/C=C(/C(=O)O)c2cc(OC)c(OC)c(OC)c2)cc1 [Compound 14]	–	–	< 10000	–	IC50 [3, 7]: 7800 nM
COc1ccc(/C=C(/C(=O)N2CCCCC2)c2cc(OC)c(OC)c(OC)c2)cc1 [Compound 53, (E)-3-(4-Methoxyphenyl)-1-(piperidin-1-yl)-2-(3,4,5-trimethoxyphenyl)prop-2-en-1-one]	–	–	–	–	inhibition at 10 µM ([3]; Homo sapiens): 35%
CCC(=C(c1ccc(O)cc1)c1ccc(OCCN(C)C(=O)/C(=C/c2ccc(OC)c(N)c2)c2cc(OC)c(OC)c(OC)c2)cc1)c1ccc(O)cc1 (mixture of isomers) [Compound 46, (E)-3-(3-Amino-4-methoxyphenyl)-N-(2-{4-[(E/Z)-1,2-bis-(4-hydroxyphenyl)but-1-enyl]phenoxy}ethyl)-N-methyl-2-(3,4,5-trimethoxyphenyl) acrylamide]	0	6	6150	49.7	–
COc1ccc(/C=C(/C(=O)N2CCCC2)c2cc(OC)c(OC)c(OC)c2)cc1 [Compound 52, (E)-3-(4-Methoxyphenyl)-1-(pyrrolidin-1-yl)-2-(3,4,5-trimethoxyphenyl)prop-2-en-1-one]	–	–	> 50000	–	–
COc1ccc(/C(=C\c2cc(OC)c(OC)c(OC)c2)C(=O)N2CCCC2)cc1 [Compound 48, (E)-2-(4-methoxyphenyl)-1-(pyrrolidin-1-yl)-3-(3,4,5-trimethoxyphenyl)prop-2-en-1-one]	–	–	> 50000	–	–
COc1ccc(/C=C(/C(=O)N2CCCCC2)c2cc(OC)c(OC)c(OC)c2)cc1O [Compound 49, (E)-3-(3-hydroxy-4-methoxyphenyl)-1-(piperidin-1-yl)-2-(3,4,5-trimethoxyphenyl)prop-2-en-1-one]	–	–	> 50000	–	–
COc1ccc(/C=C(/C(=O)N2CCCCC2)c2cc(OC)c(OC)c(OC)c2)cc1N [Compound 55, (E)-3-(3-Amino-4-methoxyphenyl)-1-(piperidin-1-yl)-2-(3,4,5-trimethoxyphenyl)prop-2-en-1-one]	–	–	–	–	inhibition at 10 µM ([3]; Homo sapiens): 34%
COc1ccc(/C=C(/C(=O)O)c2cc(OC)c(OC)c(OC)c2)cc1F [Compound 15]	–	–	55100	–	–
CCC(=C(c1ccc(O)cc1)c1ccc(OCCN(C)C(=O)/C(=C/c2ccc(C)cc2)c2cc(OC)c(OC)c(OC)c2)cc1)c1ccc(O)cc1 (mixture of isomers) [Compound 38, (E)-N-(2-{4-[(E/Z)-1,2-Bis-(4-hydroxyphenyl)but-1-enyl]phenoxy}ethyl)-N-methyl-3-p-tolyl-2-(3,4,5-trimethoxyphenyl)acrylamide]	–	12	372	–	–
COc1ccc(/C(=C\c2cc(OC)c(OC)c(OC)c2)C(=O)O)cc1 [Compound 23]	–	–	> 50000	–	–
